Our source for the efflux ratio and EC50 values is US11926612B2, “Heterocyclic apelin receptor (APJ) agonists and uses thereof” (Research Triangle Institute, priority 2016, dated 2024).

The nature of series [1]: Cellular uptake assay: Caco-2 monolayer permeability (A-to-B / B-to-A). To be noted: human, Papp (B-to-A)/Papp (A-to-B), Caco-2, 5 μM, pH 7.4. The class given is in vitro ADME. On the procedure:
Caco-2 cells (clone C2BBe1) were obtained from American Type Culture Collection (Manassas, VA). Cell monolayers were grown to confluence on collagen-coated, microporous, polycarbonate membranes in 12-well Costar Transwell plates. Details of the plates and their certification are shown below. The permeability assay buffer was Hanks' balanced salt solution (HBSS) containing 10 mM HEPES and 15 mM glucose at a pH of 7.4. The buffer in the receiver chamber also contained 1% bovine serum albumin. The dosing solution concentration was 5 μM for each test article in the assay buffer. Cell monolayers were dosed on the apical side (A-to-B) or basolateral side (B-to-A) and incubated at 37° C. with 5% CO2 in a humidified incubator. Samples were taken from the donor and receiver chambers at 120 minutes. Each determination was performed in duplicate. After the experiment, all assay buffers were removed from the inserts. Cell monolayers were dosed with blank 500 μM lucifer yellow on the A-to-B side and blank HBSS on the B-to-A side and incubated at 37° C. Samples were taken from the B-to-A side at 60 minutes. The flux of lucifer yellow was measured for each monolayer to ensure no damage was inflicted to the cell monolayers during the flux period. All samples were analyzed by LC-MS/MS using electrospray ionization. The apparent permeability (Papp) and percent recovery were calculated as follows: Papp=(dCr/dt)×Vr/(A×CA) (1) Percent Recovery=100×((Vr×Cr^final)+(Vd×Cd^final))/(Vd×CN) (2)
Where, dCr/dt is the slope of the cumulative concentration in the receiver compartment versus time in M s^−1;
Vr is the volume of the receiver compartment in cm^3;
Vd is the volume of the donor compartment in cm^3;
A is the area of the insert (1.13 cm^2 for 12-well Transwell);
CA is the average of the nominal dosing concentration and the measured 120-minute donor concentration in μM;
CN is the nominal concentration of the dosing solution in M;
Cr^final is the cumulative receiver concentration in M at the end of the incubation period;
Cd^final is the concentration of the donor in μM at the end of the incubation period.
Efflux ratio (ER) is defined as Papp (B-to-A)/Papp (A-to-B).
Absorption Potential Classification:
Papp (A-to-B)<1.0×10^−6 cm/s: Low
Papp (A-to-B) ≥1.0×10^−6 cm/s: High
Significant Efflux is defined as: ER≥2.0 and Papp (B-to-A)≥1.0×10^−6 cm/
Background: Caco-2 monolayers are a common model of the intestinal barrier.

For another series, the target named is T1, apelin receptor (APJ) (Homo sapiens, UniProt P35414).
T1 sequence (P35414 1-380): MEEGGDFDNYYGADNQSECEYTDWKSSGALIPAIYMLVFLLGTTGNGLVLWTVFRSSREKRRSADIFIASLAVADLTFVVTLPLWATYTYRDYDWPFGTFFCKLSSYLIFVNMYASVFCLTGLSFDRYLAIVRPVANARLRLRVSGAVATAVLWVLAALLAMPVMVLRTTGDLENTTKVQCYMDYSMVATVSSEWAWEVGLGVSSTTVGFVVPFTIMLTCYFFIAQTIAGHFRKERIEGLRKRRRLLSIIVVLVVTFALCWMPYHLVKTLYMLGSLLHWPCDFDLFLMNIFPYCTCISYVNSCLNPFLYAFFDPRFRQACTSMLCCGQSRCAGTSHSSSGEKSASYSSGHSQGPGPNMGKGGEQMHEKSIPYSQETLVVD
The series can be described thus: in vitro activity as apelin agonists (methods of Giddings et al.; Apelin-13 positive control). The class given is cell-based. To be noted: apelin agonist activity, average; read-out: EC50 (nM) Ave. An excerpt:
The compounds above were studied for their in vitro activity as apelin agonists using the methods described by Giddings et al. Giddings et al., 2010 Int J High Thro Screen. 1:39-47, the contents of which are hereby incorporated by reference in its entirety. The methods described in Giddings et al. were used as described and Apelin-13 was a positive control.

A word on the efflux ratio: it is the permeability from basolateral to apical divided by that in the opposite direction, in the common usage. A word on the EC50: it is the midpoint of the concentration-response curve.

As to `O=C(O)C[C@H](CCN1CCCC(F)(F)C1)NC(=O)c1nc(C2CCCC2)n(-c2ccccc2C(F)(F)F)n1` [compound 461, (3S)-3-({5-cyclopentyl-1-[2-(trifluoromethyl)phenyl]-1H-1,2,4-triazol-3-yl}formamido)-5-(3,3-difluoropiperidin-1-yl)pentanoic acid], the efflux ratio at 120 min, 5 μM in series [1] was 7. For the same compound, the EC50 at apelin receptor (APJ) amounted to 46 nM.

Consider `O=C(C[C@H](CCN1CCCC(F)(F)C1)NC(=O)c1cn(-c2ccccc2C(F)(F)F)c(C2CCCC2)n1)NC1CCC1` [compound 472, (3S)-N-cyclobutyl-3-({2-cyclopentyl-1-[2-(trifluoromethyl)phenyl]-1H-imidazol-4-yl}formamido)-5-(3,3-difluoropiperidin-1-yl)pentanamide], for which, in series [1], the efflux ratio at 120 min, 5 μM came out at 4. Further, on apelin receptor (APJ), the EC50 was 15 nM.

On to `O=C(C[C@H](CCN1CCCC(F)(F)C1)NC(=O)c1nc(-c2ncccc2C(F)(F)F)n(C2CCCC2)n1)NC1CCC1` [compound 530, (3S)-N-cyclobutyl-3-({1-cyclopentyl-5-[3-(trifluoromethyl)pyridin-2-yl]-1H-1,2,4-triazol-3-yl}formamido)-5-(3,3-difluoropiperidin-1-yl)pentanamide], for which the efflux ratio at 120 min, 5 μM in series [1] worked out at 46. For the same compound, on apelin receptor (APJ), the EC50 came out at 7.5 nM.

`O=C(N[C@@H](CCN1CCCC(F)(F)C1)Cc1nnn[nH]1)c1nc(C2CCCC2)n(-c2ccccc2C(F)(F)F)n1` [compound 616, 5-cyclopentyl-N-[(2S)-4-(3,3-difluoropiperidin-1-yl)-1-(1H-1,2,3,4-tetrazol-5-yl)butan-2-yl]-1-[2-(trifluoromethyl)phenyl]-1H-1,2,4-triazole-3-carboxamide]: in series [1], the efflux ratio at 120 min, 5 μM stood at 17. Besides, the EC50 at apelin receptor (APJ) came out at 9 nM.
